25 compounds from patent US20240116922A1, “IMIDAZO[1,2-A]PYRIDINE DERIVATIVES AS IRAK4 INHIBITORS AND THEIR USE IN THE TREATMENT OF DISEASE” (BIOGEN MA INC., priority 2020, published 2024) can be followed below.

SMILES strings stand for the structures. In brackets after ≈: the same amount, converted by molar mass. Counter-ions that a name gives are not always drawn.

The target of one data set is IRAK4 (Homo sapiens (Human), UniProt Q9NWZ3). Nature of the data set: IRAK4 MSD biochemical assay (2-hour 1 mM ATP). The following applies: 0.1 nM IRAK4, 1 mM ATP, 2 hour at room temperature.
Sequence of IRAK4 (Q9NWZ3 whole entry): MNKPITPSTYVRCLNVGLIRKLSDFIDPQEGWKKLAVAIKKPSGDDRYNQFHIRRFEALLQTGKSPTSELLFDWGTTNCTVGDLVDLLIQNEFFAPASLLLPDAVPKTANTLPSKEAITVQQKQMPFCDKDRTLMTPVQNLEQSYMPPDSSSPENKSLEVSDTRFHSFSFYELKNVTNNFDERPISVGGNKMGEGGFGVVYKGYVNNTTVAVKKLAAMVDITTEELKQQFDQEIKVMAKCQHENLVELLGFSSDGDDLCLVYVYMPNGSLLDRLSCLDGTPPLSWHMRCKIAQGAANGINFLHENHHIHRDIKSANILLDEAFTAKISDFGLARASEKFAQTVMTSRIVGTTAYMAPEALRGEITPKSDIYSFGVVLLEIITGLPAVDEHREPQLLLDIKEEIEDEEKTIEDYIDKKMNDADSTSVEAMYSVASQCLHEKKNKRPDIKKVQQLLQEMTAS
A short description of data set [1]: Kinetic solubility assay (CLND), pH 6.8. Type of data set: physicochemical. The following applies: aqueous buffer, kinetic from dmso stock; potassium phosphate buffer pH 6.8, 2% DMSO, 24 hours at ambient temperature.
A further data set has as its target MDR1 (Homo sapiens (Human), UniProt P08183). Nature of the data set: in vitro. Particulars: MDCK-MDR1.

Sequence of MDR1 (P08183 whole entry): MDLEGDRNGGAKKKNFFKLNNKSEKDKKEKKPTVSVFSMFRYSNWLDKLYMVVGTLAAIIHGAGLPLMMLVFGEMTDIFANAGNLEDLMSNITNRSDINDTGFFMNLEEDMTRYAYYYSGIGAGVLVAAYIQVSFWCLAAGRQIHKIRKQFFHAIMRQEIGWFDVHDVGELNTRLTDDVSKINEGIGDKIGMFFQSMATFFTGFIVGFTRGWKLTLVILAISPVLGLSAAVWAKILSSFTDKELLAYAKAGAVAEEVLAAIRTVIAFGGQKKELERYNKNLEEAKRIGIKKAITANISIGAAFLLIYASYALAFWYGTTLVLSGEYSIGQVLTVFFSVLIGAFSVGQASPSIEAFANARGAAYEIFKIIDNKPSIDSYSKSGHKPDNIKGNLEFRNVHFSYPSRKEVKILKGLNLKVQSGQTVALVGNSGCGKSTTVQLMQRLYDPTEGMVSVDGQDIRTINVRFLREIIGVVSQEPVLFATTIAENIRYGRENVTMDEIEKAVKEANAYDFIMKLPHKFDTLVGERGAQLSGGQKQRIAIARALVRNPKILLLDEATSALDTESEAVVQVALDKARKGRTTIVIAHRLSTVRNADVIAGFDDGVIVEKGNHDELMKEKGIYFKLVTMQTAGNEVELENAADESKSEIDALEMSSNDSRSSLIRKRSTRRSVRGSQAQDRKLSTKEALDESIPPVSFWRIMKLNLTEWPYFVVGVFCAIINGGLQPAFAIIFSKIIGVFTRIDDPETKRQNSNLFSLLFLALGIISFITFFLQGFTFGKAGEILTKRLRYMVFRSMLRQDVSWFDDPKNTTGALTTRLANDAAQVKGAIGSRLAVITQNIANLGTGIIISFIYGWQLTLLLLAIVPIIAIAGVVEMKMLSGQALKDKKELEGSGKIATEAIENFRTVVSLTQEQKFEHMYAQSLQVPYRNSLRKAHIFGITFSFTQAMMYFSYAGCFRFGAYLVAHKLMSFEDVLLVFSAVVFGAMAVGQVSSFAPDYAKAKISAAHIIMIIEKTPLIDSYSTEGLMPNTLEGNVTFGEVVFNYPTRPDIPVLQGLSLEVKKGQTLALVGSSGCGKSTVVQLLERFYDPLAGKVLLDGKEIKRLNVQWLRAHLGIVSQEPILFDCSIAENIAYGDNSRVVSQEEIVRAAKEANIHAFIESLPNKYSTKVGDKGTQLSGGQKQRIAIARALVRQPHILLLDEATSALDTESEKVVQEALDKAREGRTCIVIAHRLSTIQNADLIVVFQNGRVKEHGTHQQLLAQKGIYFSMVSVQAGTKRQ

As a reminder, the IC50 is the concentration needed to halve the response being measured. A low value points to inhibition by little substance. As a reminder, the kinetic solubility is the concentration staying in solution when a stock, usually in DMSO, is diluted into the medium. The term efflux ratio denotes a quotient of directional permeabilities that is used to spot active efflux. On to `CC(C)Oc1cc2nc([C@]34CC[C@](C)(C3)OC4)cn2cc1C(=O)Nc1cccn(C2CC2F)c1=O` (mixture of isomers) [Example 100, N-(1-(2-fluorocyclopropyl)-2-oxo-1,2-dihydropyridin-3-yl)-7-isopropoxy-2-((1R,4S)-1-methyl-2-oxabicyclo[2.2.1]heptan-4-yl)imidazo[1,2-a]pyridine-6-carboxamide], for which the half-inhibitory concentration (IC50) on IRAK4 was found to be 0.6 nM. In data set [1], this compound came in with a kinetic solubility at 24 h of 27.6 µg/mL. For the same compound, at MDR1, the efflux ratio at 120 min, 1 μM turned out to be 12.6.

For the compound `CC(C)Oc1c(C(=O)Nc2cccn([C@H]3C[C@H]3F)c2=O)cn2cc(C34COC(C)(C3)C4)nc2c1F` (single isomer, unassigned) [Example 93], on IRAK4, the 50% inhibitory concentration (IC50) was found to be 0.6 nM. Further, in data set [1], the solubility (kinetic) at 24 h is 62.8 µg/mL (≈ 130 µM). Further, the efflux ratio at 120 min, 1 μM on MDR1 stood at 4.9.

`CC12CCC(c3cn4cc(C(=O)Nc5cccn(C6CC6)c5=O)c(OC5CCC5)cc4n3)(CO1)C2` (stereo not drawn) [Example 23, 7-cyclobutoxy-N-(1-cyclopropyl-2-oxo-1,2-dihydropyridin-3-yl)-2-(1-methyl-2-oxabicyclo[2.2.1]heptan-4-yl)imidazo[1,2-a]pyridine-6-carboxamide] had a 50% inhibitory concentration (IC50) on IRAK4 of 0.5 nM. Further, the solubility (kinetic) at 24 h in data set [1] is 61.9 µg/mL (≈ 130 µM). In addition, the efflux ratio at 120 min, 1 μM at MDR1 was 2.8.

In turn, `CC[C@@H](C)Oc1cc2nc([C@@]34CC[C@@](C)(C3)OC4)cn2cc1C(=O)Nc1cccn(C2CC2)c1=O` (single isomer, unassigned) [Example 21] came in with an IC50 at IRAK4 of 0.9 nM. The solubility (kinetic) at 24 h in data set [1] stood at 61.3 µg/mL (≈ 129 µM). On MDR1, the efflux ratio at 120 min, 1 μM came out at 3.2.

Take `O=C(Nc1cccn(C2CC2F)c1=O)c1cn2cc([C@]34CO[C@](CF)(C3)C4)nc2nc1OC1CCC1` (mixture of isomers) [Example 106, (rac)-Cis-7-cyclobutoxy-N-(1-(2-fluorocyclopropyl)-2-oxo-1,2-dihydropyridin-3-yl)-2-(1-(fluoromethyl)-2-oxabicyclo[2.1.1]hexan-4-yl)imidazo[1,2-a]pyrimidine-6-carboxamide]: the half-inhibitory concentration (IC50) against IRAK4 amounted to 0.5 nM. The compound also came in with a solubility (kinetic) at 24 h in data set [1] of 44.4 µg/mL. The efflux ratio at 120 min, 1 μM on MDR1 came to 12.8.

For the compound `CC(C)Oc1cc2nc(C34COC(C)(C3)C4)cn2cc1C(=O)Nc1cccn([C@H]2C[C@H]2C)c1=O` [Example 134, 7-isopropoxy-2-(1-methyl-2-oxabicyclo[2.1.1]hexan-4-yl)-N-(1-((1S,2R)-2-methylcyclopropyl)-2-oxo-1,2-dihydropyridin-3-yl)imidazo[1,2-a]pyridine-6-carboxamide], at IRAK4, the midpoint of inhibition, the IC50, lay at 0.5 nM. Moreover, the solubility (kinetic) at 24 h in data set [1] was determined as 38.6 µg/mL (≈ 83.5 µM). Further, the efflux ratio at 120 min, 1 μM at MDR1 is 4.4.

As to `C[C@H](Oc1cc2nc(C34COC(C)(C3)C4)cn2cc1C(=O)Nc1cccn(C2C[C@H]2F)c1=O)C(F)F` (stereo partly drawn) [Example 184, 7-(((S)-1,1-difluoropropan-2-yl)oxy)-N-(1-((1S,2R)-2-fluorocyclopropyl)-2-oxo-1,2-dihydropyridin-3-yl)-2-(1-methyl-2-oxabicyclo[2.1.1]hexan-4-yl)imidazo[1,2-a]pyridine-6-carboxamide], half-maximal inhibition on IRAK4 (IC50) required 0.2 nM. The kinetic solubility at 24 h in data set [1] is 73.4 µg/mL (≈ 146 µM). At MDR1, the efflux ratio at 120 min, 1 μM is 19.2.

Consider `CC(C)Oc1cc2nc([C@]34CC[C@](C)(C3)OC4)cn2cc1C(=O)Nc1cccn([C@@H]2C[C@H]2F)c1=O` (single isomer, unassigned) [Example 118], for which the IC50 against IRAK4 was 0.9 nM. In data set [1], this compound displayed a solubility (kinetic) at 24 h of 56.2 µg/mL (≈ 117 µM). In addition, the efflux ratio at 120 min, 1 μM at MDR1 was 5.1.

In turn, `CC(C)Oc1cc2nc([C@H]3COCCO3)cn2cc1C(=O)Nc1cccn(C2CC2)c1=O` (single isomer, unassigned) [Example 70] showed an IC50 against IRAK4 of 1.2 nM. The compound further yielded a kinetic solubility at 24 h in data set [1] of 9.9 µg/mL (≈ 22.6 µM). In addition, the efflux ratio at 120 min, 1 μM on MDR1 worked out at 3.9.

On IRAK4, `CC12CC(c3cn4cc(C(=O)Nc5cccn([C@@H]6C[C@@H]6F)c5=O)c(OC5CCC5)nc4n3)(CO1)C2` (single isomer, unassigned) [Example 113] returned an IC50 of 12.6 nM. For the same compound, the solubility (kinetic) at 24 h in data set [1] is 59.5 µg/mL (≈ 124 µM). Moreover, at MDR1, the efflux ratio at 120 min, 1 μM worked out at 8.7.

Take `CC[C@H](C)Oc1nc2nc(C34CCC(CF)(C3)OC4)cn2cc1C(=O)Nc1cccn(C2CC2)c1=O` (stereo partly drawn) [Example 56, 7-((S)-sec-butoxy)-N-(1-cyclopropyl-2-oxo-1,2-dihydropyridin-3-yl)-2-(1-(fluoromethyl)-2-oxabicyclo[2.2.1]heptan-4-yl)imidazo[1,2-a]pyrimidine-6-carboxamide]: it took 0.6 nM to reach half-maximal inhibition at IRAK4 (IC50). This compound also had a solubility (kinetic) at 24 h in data set [1] of 67.5 µg/mL (≈ 136 µM). Also, the efflux ratio at 120 min, 1 μM on MDR1 was 4.1.

For `CC(C)Oc1cc2nc([C@@]34CC[C@@](C)(C3)OC4)cn2cc1C(=O)Nc1ccnn(C2CC2)c1=O` [Example 74, N-(2-cyclopropyl-3-oxo-2,3-dihydropyridazin-4-yl)-7-isopropoxy-2-((1S,4R)-1-methyl-2-oxabicyclo[2.2.1]heptan-4-yl)imidazo[1,2-a]pyridine-6-carboxamide], half-maximal inhibition on IRAK4 (IC50) required 1.2 nM. For the same compound, the kinetic solubility at 24 h in data set [1] came out at 47.5 µg/mL (≈ 102 µM). The efflux ratio at 120 min, 1 μM at MDR1 stood at 1.

`C[C@@H](CF)Oc1cc2nc(C34COC(C)(C3)C4)cn2cc1C(=O)Nc1cccn(C2CC2)c1=O` [Example 28, (S)—N-(1-cyclopropyl-2-oxo-1,2-dihydropyridin-3-yl)-7-((1-fluoropropan-2-yl)oxy)-2-(1-methyl-2-oxabicyclo[2.1.1]hexan-4-yl)imidazo[1,2-a]pyridine-6-carboxamide] displayed a half-maximal inhibitory concentration (IC50) against IRAK4 of 0.2 nM. In addition, the kinetic solubility at 24 h in data set [1] turned out to be 62.6 µg/mL (≈ 134 µM). Moreover, the efflux ratio at 120 min, 1 μM at MDR1 was 18.2.

On to `CC(C)Oc1cc2nc([C@]34CC[C@](C)(C3)OC4)cn2cc1C(=O)Nc1ccnn(C2CC2)c1=O` [Example 75, N-(2-cyclopropyl-3-oxo-2,3-dihydropyridazin-4-yl)-7-isopropoxy-2-((1R,4S)-1-methyl-2-oxabicyclo[2.2.1]heptan-4-yl)imidazo[1,2-a]pyridine-6-carboxamide], for which, at IRAK4, half-maximal inhibition (IC50) required 1.6 nM. In data set [1], this compound yielded a kinetic solubility at 24 h of 40.4 µg/mL (≈ 87.2 µM). Also, the efflux ratio at 120 min, 1 μM on MDR1 stood at 1.4.

Take `C[C@]12CC[C@](c3cn4cc(C(=O)Nc5cccn(C6CC6)c5=O)c(OC5CCC5)cc4n3)(CO1)C2` (single isomer, unassigned) [Example 26]: it took 0.7 nM to reach half-maximal inhibition against IRAK4 (IC50). Further, the solubility (kinetic) at 24 h in data set [1] stood at 65.3 µg/mL (≈ 138 µM). Moreover, the efflux ratio at 120 min, 1 μM on MDR1 was found to be 4.1.

Consider `CC(C)Oc1c(C(=O)Nc2cccn(C3CC3)c2=O)cn2cc([C@]34CC[C@](C)(C3)OC4)nc2c1F` (single isomer, unassigned) [Example 68], for which half-maximal inhibition against IRAK4 (IC50) was put at 4.3 nM. This compound showed a kinetic solubility at 24 h in data set [1] of 53.6 µg/mL (≈ 112 µM). Besides, the efflux ratio at 120 min, 1 μM on MDR1 came out at 2.2.

With `CC12CC(c3cn4cc(C(=O)Nc5cccn([C@H]6C[C@H]6F)c5=O)c(OC5CCC5)cc4n3)(CO1)C2` (single isomer, unassigned) [Example 173], the IC50 on IRAK4 was determined as 0.2 nM. Moreover, in data set [1], the solubility (kinetic) at 24 h is 22.6 µg/mL (≈ 47.2 µM). The efflux ratio at 120 min, 1 μM at MDR1 is 10.9.

The compound `CC(C)Oc1cc2nc(C34COC(C3)C4)cn2cc1C(=O)Nc1cccn(C2CC2)c1=O` [Example 34, 2-(2-oxabicyclo[2.1.1]hexan-4-yl)-N-(1-cyclopropyl-2-oxo-1,2-dihydropyridin-3-yl)-7-isopropoxyimidazo[1,2-a]pyridine-6-carboxamide] yielded a 50% inhibitory concentration (IC50) against IRAK4 of 1 nM. Besides, the solubility (kinetic) at 24 h in data set [1] was 39.2 µg/mL (≈ 90.2 µM). The efflux ratio at 120 min, 1 μM on MDR1 amounted to 11.1.

Turning to `C[C@]12CC[C@](c3cn4cc(C(=O)Nc5cccn(C6CC6)c5=O)c(OC5CCC5)nc4n3)(CO1)C2` (single isomer, unassigned) [Example 17], half-maximal inhibition on IRAK4 (IC50) required 0.5 nM. The kinetic solubility at 24 h in data set [1] amounted to 8.5 µg/mL (≈ 17.9 µM). In addition, the efflux ratio at 120 min, 1 μM on MDR1 is 3.9.

On IRAK4, `CC[C@@H](C)Oc1cc2nc(C34COC(CF)(C3)C4)cn2cc1C(=O)Nc1cccn(C2CC2)c1=O` (single isomer, unassigned) [Example 14] yielded a half-inhibitory concentration (IC50) of 1.3 nM. Besides, the solubility (kinetic) at 24 h in data set [1] stood at 75.7 µg/mL (≈ 158 µM). Also, the efflux ratio at 120 min, 1 μM on MDR1 worked out at 4.8.

In turn, `CC[C@H](C)Oc1nc2nc(C34COC(C)(C3)C4)cn2cc1C(=O)Nc1cccn(C2CC2)c1=O` (single isomer, unassigned) [Example 64] yielded a concentration for half-maximal inhibition (IC50) against IRAK4 of 0.5 nM. In addition, the kinetic solubility at 24 h in data set [1] worked out at 49.6 µg/mL (≈ 107 µM). The efflux ratio at 120 min, 1 μM at MDR1 was found to be 5.

In turn, `CC(C)Oc1cc2nc([C@@]34CC[C@@](C)(C3)OC4)cn2cc1C(=O)Nc1cccn([C@H]2C[C@@H]2F)c1=O` (single isomer, unassigned) [Example 117] returned an IC50 on IRAK4 of 0.7 nM. Moreover, the solubility (kinetic) at 24 h in data set [1] came out at 23.1 µg/mL (≈ 48.1 µM). In addition, the efflux ratio at 120 min, 1 μM on MDR1 was found to be 3.9.

For `CC(C)Oc1cc2nc([C@@]34CC[C@@H](C3)OC4)cn2cc1C(=O)Nc1cccn(C2CC2)c1=O` (single isomer, unassigned) [Example 39], at IRAK4, the IC50 is 0.2 nM. In data set [1], this compound showed a kinetic solubility at 24 h of 68.9 µg/mL (≈ 154 µM). Moreover, on MDR1, the efflux ratio at 120 min, 1 μM was 6.8.

Take `CC(C)Oc1cc2nc([C@@]34CC[C@@](C)(C3)OC4)cn2cc1C(=O)Nc1cccn([C@H]2C[C@H]2C)c1=O` [Example 182, 7-isopropoxy-2-((1S,4R)-1-methyl-2-oxabicyclo[2.2.1]heptan-4-yl)-N-(1-((1S,2R)-2-methylcyclopropyl)-2-oxo-1,2-dihydropyridin-3-yl)imidazo[1,2-a]pyridine-6-carboxamide trifluoroacetate]: half-maximal inhibition on IRAK4 (IC50) required 0.2 nM. In data set [1], this compound returned a solubility (kinetic) at 24 h of 31.8 µg/mL. For the same compound, on MDR1, the efflux ratio at 120 min, 1 μM amounted to 3.9.

Regarding `CC(C)Oc1c(C(=O)Nc2cccn([C@H]3C[C@H]3F)c2=O)cn2cc([C@]34CC[C@](C)(C3)OC4)nc2c1F` (single isomer, unassigned) [Example 127], the 50% inhibitory concentration (IC50) on IRAK4 amounted to 0.7 nM. In data set [1], the solubility (kinetic) at 24 h is 32.6 µg/mL (≈ 65.4 µM). In addition, the efflux ratio at 120 min, 1 μM on MDR1 worked out at 3.4.
